Results as given in patent US8114814B2, “Herbicide composition” (Kumiai Chemical Industry Co., Ltd., priority 2007, dated 2012).

Tests used:
Details in all cases: 28th day of the treatment
[1] = system: Cyperus serotinus Rottb.; experiment: Test for herbicidal effect by paddy soil treatment; assay type: in vivo
Source text: (§1) A paddy soil was filled in a plastic pot of 100 cm^2 and subjected to puddling. Thereinto were sowed seeds of Echinochloa oryzicola Vasing, Monochoria vaginalis (Burm. f.) Kunth, Schoenoplectus juncoides (Roxb.) Paila or Cyperus serotinus Rottb., after which water was filled at a depth of 3 cm. Each pot was placed in a greenhouse for raising, At a timing when the Echinochloa oryzicola Vasing reached about a two-leaf stage, a seedling of two-leaf stage rice (variety: Kinnanpuu) was transplanted into each pot at a depth of 2 cm. A wettable powder prepared in accordance with Formulation Example 2 was diluted with water based on the total sum of the active ingredients, and the dilution was dropped on the water surface of the pot. Then, the pot was allowed to stand for raising. The herbicidal effect of the wettable powder was examined at the 28th day of the treatment (the dropping of the dilution) in accordance with the standard of Table 4.

[2] = system: Echinochloa oryzicola Vasing; experiment: Test for herbicidal effect by paddy soil treatment; assay type: in vivo
Source text: as §1

[3] = system: Monochoria vaginalis (Burm. f.) Kunth; experiment: Test for herbicidal effect by paddy soil treatment; assay type: in vivo
Source text: as §1

[4] = system: Schoenoplectus juncoides (Roxb.) Paila; experiment: Test for herbicidal effect by paddy soil treatment; assay type: in vivo
Source text: as §1

[5] = system: Transplanted Rice; experiment: Test for herbicidal effect by paddy soil treatment: phytotoxicity to transplanted rice; assay type: in vivo, rice (variety: Kinnanpuu)
Source text: as §1, with “A wettable powder prepared in accordance with Formulation Example 2 was diluted with water based on the total sum of the active ingredients, and the dilution was dropped on the water surface of the pot.” left out

[6] = system: Direct seeding rice; experiment: Test for herbicidal effect by paddy foliage treatment: phytotoxicity to direct seeding rice; assay type: in vivo, rice (variety: Akebono)
Source text: A paddy soil was filled in a plastic pot of 100 cm^2 and subjected to puddling. Thereinto were sowed seeds of rice (variety: Akebono), Echinochloa crusgalli (L.) P. Beauv. Var. crus-galli, Leptochloa chinensis Nees., Monochoria vaginalis (Burm. f.) Kunth, or Fimbristylis miliacea Vahl, after which each plant was raised in a greenhouse in a drained treatment until the Echinochloa crus-galli (L.) P. Beauv. Var. crus-galli reached a two-leaf stage. […] 3 days after the spraying, water was filled at a depth of 3 cm. Then, the pot was allowed to stand for raising. The herbicidal effect of the wettable powder was examined at the 28th day of the treatment (the spraying of the dilution) in accordance with the standard of Table 4.

[7] = system: Echinochloa crusgalli (L.) P. Beauv. Var. crus-galli; experiment: Test for herbicidal effect by paddy foliage treatment; assay type: in vivo
Source text: (§2) A paddy soil was filled in a plastic pot of 100 cm^2 and subjected to puddling. Thereinto were sowed seeds of rice (variety: Akebono), Echinochloa crusgalli (L.) P. Beauv. Var. crus-galli, Leptochloa chinensis Nees., Monochoria vaginalis (Burm. f.) Kunth, or Fimbristylis miliacea Vahl, after which each plant was raised in a greenhouse in a drained treatment until the Echinochloa crus-galli (L.) P. Beauv. Var. crus-galli reached a two-leaf stage. At that timing, a wettable powder prepared in accordance with Formulation Example 2 was diluted with water based on the total sum of the active ingredients, and the dilution was sprayed at a rate of 20 liters/10 ares using a micro-sprayer (a product of OLYMPOS). 3 days after the spraying, water was filled at a depth of 3 cm. Then, the pot was allowed to stand for raising. The herbicidal effect of the wettable powder was examined at the 28th day of the treatment (the spraying of the dilution) in accordance with the standard of Table 4.

[8] = system: Fimbristylis miliacea Vahl; experiment: as above; assay type: in vivo
Source text: as §2

[9] = system: Leptochloa chinensis Nees.; experiment: as above; assay type: in vivo
Source text: as §2

[10] = system: Monochoria vaginalis (Burm. f.) Kunth; experiment: as above; assay type: in vivo
Source text: as §2

SMILES | phytotoxicity index, Transplanted Rice ([5]; Dose 20 g a.i./10a) | herbicidal effect index, Cyperus serotinus ([1]; Dose 20 g a.i./10a) | herbicidal effect index, Echinochloa oryzicola ([2]; Dose 20 g a.i./10a) | herbicidal effect index, Monochoria vaginalis ([3]; Dose 20 g a.i./10a) | herbicidal effect index, Schoenoplectus juncoides ([4]; Dose 20 g a.i./10a) | phytotoxicity index, Direct seeding rice ([6]; Dose 20 g a.i./10a) | herbicidal effect index, Echinochloa crus-galli ([7]; Dose 20 g a.i./10a) | herbicidal effect index, Fimbristylis miliacea ([8]; Dose 20 g a.i./10a) | herbicidal effect index, Leptochloa chinensis ([9]; Dose 20 g a.i./10a) | herbicidal effect index, Monochoria vaginalis ([10]; Dose 20 g a.i./10a) | further results
COC(=O)c1ccccc1CS(=O)(=O)NC(=O)Nc1nc(OC)cc(OC)n1 [Bensulfuron-methyl, reference compound] | – | – | – | – | – | – | – | – | – | – | herbicidal effect index, Cyperus serotinus ([1]; Dose 1 g a.i./10a): 7 (Herbicidal effect or phytotoxicity of 70% to less than 80%); herbicidal effect index, Echinochloa oryzicola ([2]; Dose 1 g a.i./10a): 3 (Herbicidal effect or phytotoxicity of 30% to less than 40%); herbicidal effect index, Monochoria vaginalis ([3]; Dose 1 g a.i./10a): 8 (Herbicidal effect or phytotoxicity of 80% to less than 90%); herbicidal effect index, Schoenoplectus juncoides ([4]; Dose 1 g a.i./10a): 7 (Herbicidal effect or phytotoxicity of 70% to less than 80%)
CC1(C)CC(SCc2ccccc2)=NO1 [Compound 1] | 1 (Herbicidal effect or phytotoxicity of 10% to less than 20%) | 2 (Herbicidal effect or phytotoxicity of 20% to less than 30%) | 8 (Herbicidal effect or phytotoxicity of 80% to less than 90%) | 4 (Herbicidal effect or phytotoxicity of 40% to less than 50%) | 6 (Herbicidal effect or phytotoxicity of 60% to less than 70%) | – | – | – | – | – | –
CC1(C)CC(S(=O)(=O)Cc2c(OCC(F)(F)F)ccc(Cl)c2Cl)=NO1 [Compound 31] | 1 (Herbicidal effect or phytotoxicity of 10% to less than 20%) | 2 (Herbicidal effect or phytotoxicity of 20% to less than 30%) | 8 (Herbicidal effect or phytotoxicity of 80% to less than 90%) | 5 (Herbicidal effect or phytotoxicity of 50% to less than 60%) | 4 (Herbicidal effect or phytotoxicity of 40% to less than 50%) | 2 (Herbicidal effect or phytotoxicity of 20% to less than 30%) | 6 (Herbicidal effect or phytotoxicity of 60% to less than 70%) | 2 (Herbicidal effect or phytotoxicity of 20% to less than 30%) | 3 (Herbicidal effect or phytotoxicity of 30% to less than 40%) | 3 (Herbicidal effect or phytotoxicity of 30% to less than 40%) | –
C#CCOc1ccc(Cl)c(Cl)c1CS(=O)(=O)C1=NOC(C)(C)C1 [Compound 33] | – | – | – | – | – | 1 (Herbicidal effect or phytotoxicity of 10% to less than 20%) | 7 (Herbicidal effect or phytotoxicity of 70% to less than 80%) | 3 (Herbicidal effect or phytotoxicity of 30% to less than 40%) | 6 (Herbicidal effect or phytotoxicity of 60% to less than 70%) | 6 (Herbicidal effect or phytotoxicity of 60% to less than 70%) | –
CC1(C)CC(S(=O)(=O)Cc2c(OCC(F)F)ccc(Cl)c2Cl)=NO1 [Compound 34] | – | – | – | – | – | 2 (Herbicidal effect or phytotoxicity of 20% to less than 30%) | 5 (Herbicidal effect or phytotoxicity of 50% to less than 60%) | 4 (Herbicidal effect or phytotoxicity of 40% to less than 50%) | 3 (Herbicidal effect or phytotoxicity of 30% to less than 40%) | 5 (Herbicidal effect or phytotoxicity of 50% to less than 60%) | –
CCOc1cc(Cl)c(CS(=O)(=O)C2=NOC(C)(C)C2)cc1Cl [Compound 54] | 1 (Herbicidal effect or phytotoxicity of 10% to less than 20%) | 1 (Herbicidal effect or phytotoxicity of 10% to less than 20%) | 8 (Herbicidal effect or phytotoxicity of 80% to less than 90%) | 5 (Herbicidal effect or phytotoxicity of 50% to less than 60%) | 2 (Herbicidal effect or phytotoxicity of 20% to less than 30%) | 2 (Herbicidal effect or phytotoxicity of 20% to less than 30%) | 7 (Herbicidal effect or phytotoxicity of 70% to less than 80%) | 2 (Herbicidal effect or phytotoxicity of 20% to less than 30%) | 6 (Herbicidal effect or phytotoxicity of 60% to less than 70%) | 4 (Herbicidal effect or phytotoxicity of 40% to less than 50%) | –
Cc1ccc(NC(=O)NC(C)(C)c2ccccc2)cc1 [Daimuron, reference compound] | – | – | – | – | – | – | – | – | – | – | herbicidal effect index, Cyperus serotinus ([1]; Dose 150 g a.i./10a): 3 (Herbicidal effect or phytotoxicity of 30% to less than 40%); herbicidal effect index, Echinochloa oryzicola ([2]; Dose 150 g a.i./10a): 0 (Herbicidal effect (growth inhibition) or phytotoxicity of less that 10%); herbicidal effect index, Monochoria vaginalis ([3]; Dose 150 g a.i./10a): 2 (Herbicidal effect or phytotoxicity of 20% to less than 30%); herbicidal effect index, Schoenoplectus juncoides ([4]; Dose 150 g a.i./10a): 7 (Herbicidal effect or phytotoxicity of 70% to less than 80%)
CCC(CC)Nc1c([N+](=O)[O-])cc(C)c(C)c1[N+](=O)[O-] [Pendimethalin, reference compound] | – | – | – | – | – | – | – | – | – | – | phytotoxicity index, Direct seeding rice ([6]; Dose 80 g a.i./10a): 1 (Herbicidal effect or phytotoxicity of 10% to less than 20%); herbicidal effect index, Echinochloa crus-galli ([7]; Dose 80 g a.i./10a): 5 (Herbicidal effect or phytotoxicity of 50% to less than 60%); herbicidal effect index, Fimbristylis miliacea ([8]; Dose 80 g a.i./10a): 3 (Herbicidal effect or phytotoxicity of 30% to less than 40%); herbicidal effect index, Leptochloa chinensis ([9]; Dose 80 g a.i./10a): 5 (Herbicidal effect or phytotoxicity of 50% to less than 60%); herbicidal effect index, Monochoria vaginalis ([10]; Dose 80 g a.i./10a): 2 (Herbicidal effect or phytotoxicity of 20% to less than 30%)
CCOC(=O)c1cnn(C)c1S(=O)(=O)NC(=O)Nc1nc(OC)cc(OC)n1 [Pyrazosulfuron-ethyl, reference compound] | – | – | – | – | – | – | – | – | – | – | phytotoxicity index, Direct seeding rice ([6]; Dose 3 g a.i./10a): 1 (Herbicidal effect or phytotoxicity of 10% to less than 20%); herbicidal effect index, Echinochloa crus-galli ([7]; Dose 3 g a.i./10a): 2 (Herbicidal effect or phytotoxicity of 20% to less than 30%); herbicidal effect index, Fimbristylis miliacea ([8]; Dose 3 g a.i./10a): 8 (Herbicidal effect or phytotoxicity of 80% to less than 90%); herbicidal effect index, Leptochloa chinensis ([9]; Dose 3 g a.i./10a): 0 (Herbicidal effect (growth inhibition) or phytotoxicity of less that 10%); herbicidal effect index, Monochoria vaginalis ([10]; Dose 3 g a.i./10a): 6 (Herbicidal effect or phytotoxicity of 60% to less than 70%)
COCc1cccc(C(O)c2nc(OC)cc(OC)n2)c1NS(=O)(=O)C(F)F (stereo not shown) [Pyrimisulfan, reference compound] | – | – | – | – | – | – | – | – | – | – | phytotoxicity index, Transplanted Rice ([5]; Dose 1 g a.i./10a): 1 (Herbicidal effect or phytotoxicity of 10% to less than 20%); herbicidal effect index, Cyperus serotinus ([1]; Dose 1 g a.i./10a): 9 (Herbicidal effect or phytotoxicity of 90% to less than 100%); herbicidal effect index, Echinochloa oryzicola ([2]; Dose 1 g a.i./10a): 6 (Herbicidal effect or phytotoxicity of 60% to less than 70%); herbicidal effect index, Monochoria vaginalis ([3]; Dose 1 g a.i./10a): 6 (Herbicidal effect or phytotoxicity of 60% to less than 70%); herbicidal effect index, Schoenoplectus juncoides ([4]; Dose 1 g a.i./10a): 9 (Herbicidal effect or phytotoxicity of 90% to less than 100%)
